Molecular target: T1, Human GLP-1 receptor (Homo sapiens, UniProt P43220)
T1 construct: expressed in transfected cells
Assay: Measurement of GLP-1 receptor agonist activity (cAMP assay)
Assay type: cell-based
Details: cAMP increase in GLP-1 R/CHO-K1 cells, 2 nM human GLP-1 (7-36) = 100%, DMSO only = 0%; for Emax: CHO-K1, maximum effect, read-out: Emax
Method in brief: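 Agonism measured as cAMP accumulation by time-resolved FRET immunoassay in CHO-K1 cells stably expressing human GLP-1 receptor. Cells treated for 1 h at 37 °C with compound and forskolin (400 μM stock), in buffer containing the PDE inhibitors IBMX (0.1 mM) and RO20-1724 (0.2 mM).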

T1 sequence (P43220 24-463): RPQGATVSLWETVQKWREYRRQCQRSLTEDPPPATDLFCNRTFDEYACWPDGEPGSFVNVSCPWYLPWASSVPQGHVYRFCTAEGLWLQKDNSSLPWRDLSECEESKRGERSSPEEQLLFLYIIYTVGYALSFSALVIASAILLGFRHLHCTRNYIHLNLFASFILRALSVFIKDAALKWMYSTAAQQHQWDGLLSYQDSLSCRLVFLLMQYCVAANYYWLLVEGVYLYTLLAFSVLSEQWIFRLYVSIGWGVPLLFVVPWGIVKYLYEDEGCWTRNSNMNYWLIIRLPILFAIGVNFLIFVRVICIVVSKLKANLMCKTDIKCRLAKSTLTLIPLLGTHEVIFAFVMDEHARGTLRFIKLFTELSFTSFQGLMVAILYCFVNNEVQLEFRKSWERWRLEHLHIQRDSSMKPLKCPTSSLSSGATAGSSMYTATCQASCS

Structure (SMILES)	Emax [%]	EC50 [nM]
COc1cc(C(=O)O)cc2c1nc(CN1CCc3cc(C(F)(F)F)c(OCc4ccc(F)cc4)cc3[C@@H]1C)n2C[C@@H]1CCO1 [Compound I-236]	106	0.429
COc1cc(C(=O)O)cc2c1nc(CN1CCc3cc(C(F)(F)F)c(OCc4c(F)cc(Cl)cc4F)cc3[C@@H]1C)n2C[C@@H]1CCO1 [Compound I-237]	102	0.103
COc1cc(C(=O)O)cc2c1nc(CN1CCc3cc(C(F)(F)F)c(OCc4c(F)cc(F)cc4F)cc3[C@@H]1C)n2C[C@@H]1CCO1 [Compound I-238]	106	0.36
C[C@H]1c2nc(OCc3ccc(Cl)cc3)c(C(F)(F)F)cc2CCN1Cc1nc2c(F)cc(C(=O)O)cc2n1C[C@@H]1CCO1 [Compound I-239]	95.3	0.0882
C[C@H]1c2nc(OCc3ccc(C#N)cc3F)c(C(F)(F)F)cc2CCN1Cc1nc2ccc(C(=O)O)c(F)c2n1C[C@@H]1CCO1 [Compound I-240]	122	0.0648
C[C@H]1c2nc(OCc3ccc(C#N)cc3F)c(C(F)(F)F)cc2CCN1Cc1nc2c(F)cc(C(=O)O)cc2n1C[C@@H]1CCO1 [Compound I-241]	125	0.0302
COc1cc(C(=O)O)cc2c1nc(CN1CCc3cc(C(F)(F)F)c(OCc4ccc(C#N)cc4F)nc3[C@@H]1C)n2C[C@@H]1CCO1 [Compound I-242]	116	0.0124
C[C@H]1c2nc(OCc3ccc(Cl)cc3Cl)c(C(F)(F)F)cc2CCN1Cc1nc2ccc(C(=O)O)c(F)c2n1C[C@@H]1CCO1 [Compound I-243]	111	0.0556
C[C@H]1c2nc(OCc3ccc(Cl)cc3Cl)c(C(F)(F)F)cc2CCN1Cc1nc2c(F)cc(C(=O)O)cc2n1C[C@@H]1CCO1 [Compound I-244]	123	0.0394
C[C@H]1c2nc(OCc3cc(F)c(Cl)cc3F)c(C(F)(F)F)cc2CCN1Cc1nc2ccc(C(=O)O)c(F)c2n1C[C@@H]1CCO1 [Compound I-245]	109	0.0605
C[C@H]1c2nc(OCc3cc(F)c(Cl)cc3F)c(C(F)(F)F)cc2CCN1Cc1nc2c(F)cc(C(=O)O)cc2n1C[C@@H]1CCO1 [Compound I-246]	120	0.0264

Results, then the compound that gave them:

Emax [%]	EC50 [nM]	Structure (SMILES)
121	0.351	C[C@H]1c2nc(OCc3ccc(Cl)cn3)c(C(F)(F)F)cc2CCN1Cc1nc2ccc(C(=O)O)cc2n1C[C@@H]1CCO1 [Compound I-247]
124	0.902	Cc1csc(COc2nc3c(cc2C(F)(F)F)CCN(Cc2nc4ccc(C(=O)O)cc4n2C[C@@H]2CCO2)[C@H]3C)n1 [Compound I-248]
145	0.13	C[C@H]1c2nc(OCc3ccc(Cl)cc3)c(C(F)(F)F)cc2CCN1Cc1nc2ccc(C(=O)O)cc2n1C[C@@H]1CCO1 [Compound I-249]
121	0.164	Cc1ccc(COc2nc3c(cc2C(F)(F)F)CCN(Cc2nc4ccc(C(=O)O)cc4n2C[C@@H]2CCO2)[C@H]3C)cc1 [Compound I-250]
120	0.807	C[C@H]1c2nc(OCc3ccc(C4CC4)cc3)c(C(F)(F)F)cc2CCN1Cc1nc2ccc(C(=O)O)cc2n1C[C@@H]1CCO1 [Compound I-251]
125	0.0798	COc1cc(Cl)ccc1COc1nc2c(cc1C(F)(F)F)CCN(Cc1nc3ccc(C(=O)O)cc3n1C[C@@H]1CCO1)[C@H]2C [Compound I-252]
119	0.366	C[C@H]1c2nc(OCc3ccccc3Cl)c(C(F)(F)F)cc2CCN1Cc1nc2ccc(C(=O)O)cc2n1C[C@@H]1CCO1 [Compound I-253]
126	0.177	C[C@H]1c2nc(OCc3ccc(F)cc3F)c(C(F)(F)F)cc2CCN1Cc1nc2ccc(C(=O)O)cc2n1C[C@@H]1CCO1 [Compound I-254]
122	0.102	C[C@H]1c2nc(OCc3ccc(Cl)cc3Cl)c(C(F)(F)F)cc2CCN1Cc1nc2ccc(C(=O)O)cc2n1C[C@@H]1CCO1 [Compound I-255]
